US7109380B2, “Cyclopentenedione antifungal compounds and methods for their use” (The University of Mississippi, priority 2004, dated 2006)
Values after ≈ are worked out from the molar mass of the structure shown. Where two headings read alike, the source gives them in different places.

Columns and labels:
[1] = test system: Candida albicans ATCC 90028; test: In vitro antifungal susceptibility testing (modified NCCLS method), media pH 7.3; format: cell-based
C. albicans ATCC 90028 = test: In vitro antimicrobial assay (modified NCCLS), Candida media pH 4.5; format: cell-based, Candida albicans; conditions: Candida albicans
C. glabrata ATCC 90030 = test: as above; format: cell-based, Candida glabrata; conditions: Nakaseomyces glabratus
Phomopsis obscurans = test: 96-well microtiter fungal growth assay; format: cell-based
Description: (§1) Pathogen collection. Isolates of Colletotrichum acutatum Simmonds, Colletotrichum fragariae Brooks, and Colletotrichum gloeosporioides (Penz.) Penz. & Sacc. in Penz. were obtained from B. J. Smith, USDA, ARS, Small Fruit Research Station, Poplarville, Mass. Colletotrichum fragariae (isolate CF63), C. acutatum (isolate CAGoff), and C. gloeosporioides (isolate CG162) were used for all pathogen and bioautography studies. Isolate CF63 is one of the most virulent isolates at infecting strawberry plants and inducing both crown and fruit rot (Smith and Black, 1990). CF63, CAGoff, and CG162 were used as standard test isolates because of our extensive knowledge of these isolates and their known fungicide sensitivity profiles in both bioautography and microtiter formats. The three Colletotrichum species were isolated from strawberry (Fragaria xananassa Duchesne). Botrytis cinerea Pers.:Fr, was isolated from commercial grape (Vitis vinifera L.) and Fusarium oxysporum Schlechtend:Fr from orchid (Cynoches sp.) by David E. Wedge, USDA ARS Natural Products Utilization Research Unit. Phomopsis viticola (Sacc.) and P. obscurans (Ellis & Everh.) Sutton were from Mike A. Ellis, Ohio State University, Wooster, Ohio. Fungi were grown on potato-dextrose agar (PDA, Difco, Detroit Mich.) in 9 cm petri dishes and incubated in a growth chamber at 24±2° C. and under cool-white fluorescent lights ([…]·m^−2·sec^−1 light) with 12-h photoperiod.
(§2) Inoculum preparation. Conidia were harvested from 7–10 day-old cultures by flooding plates with 5 mL of sterile distilled water and dislodging conidia by softly brushing the colonies with an L-shaped glass rod. Conidial suspensions were filtered through sterile miracloth (Calbiochem-Novabiochem Corp., La Jolla Calif.) to remove mycelia. Conidia concentrations were determined photometrically, from a standard curve based on the absorbance at 625 nm and suspensions were then adjusted with sterile distilled water to a concentration of 1.0×10^6 conidia/mL.
(§3) Microtiter assay. A standardized 96-well microtiter plate assay developed for discovery of natural product fungicidal agents. A 96-well microtiter assay was used to determine sensitivity of B. cinerea, C. acutatum, C. fragariae, C. gloeosporioides, F. oxysporum, Phomopsis viticola, and P. obscurans to the various antifungal agents in comparison with known fungicidal standards. Vinclozolin, captan, and thiabendazole, which represent three different modes of action, were used as standards in this experiment. Each fungus was challenged in a dose-response format using test compounds where the final treatment concentrations were 0.3, 3.0 and 30.0 μM. Microtiter plates (Nunc MicroWell, untreated; Roskilde, Denmark) were covered with a plastic lid and incubated in a growth chamber at 24±1 C and 12 h photoperiod under 60±5 μmol light. Growth was then evaluated by measuring absorbance of each well at 620 nm using a microplate photometer (Packard Spectra Count, Packard Instrument Co., Downers Grove, Ill.).
(§4) Microbioassay Experimental Design. Chemical sensitivity of each fungus 96-well microtiter assay is used to determine sensitivity of B. cinerea, C. acutatum, C. fragariae, C. gloeosporioides, F. oxysporum, Phomopsis viticola, and P. obscurans. Each chemical is evaluated in duplicate at each dose (0.3, 3.0 and 30.0 μM) and repeated twice in time. Sixteen wells containing broth and inoculum serves as positive controls, eight wells containing solvent at the appropriate concentration and broth without inoculum are used as negative controls. […] Treatments are arranged as a split-plot design replicated twice in time. Whole-plots were fungal isolates and sub-plots are chemicals. Each dose level and response time is analyzed separately. The SAS system's analysis of variance procedure (Statistical Analysis System, Cary, N.C.) is used to identify significant factors and Fisher's protected LSD is used to separate means.

Phomopsis viticola = test: 96-well microtiter fungal growth assay; format: cell-based;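 as to Mean percent fungal growth inhibition of Phomopsis viticola: percent relative to untreated positive growth controls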
Description: as §1, §2, §3, §4

SMILES: COC(/C=C/c1ccccc1)=C1\C(=O)C=C(C)C1=O [Compound 1, coruscanone A]
- Antifungal activity against C. albicans (in words) [1]: potent activity
- MFC ([1]; ATCC90028, Candida albicans ATCC 90028, Table 1, read-out: MFC (Minimum Fungicidal Concentration)): 1.56 mg/L (≈ 6.13 µM)
- MIC ([1]; ATCC90028, Candida albicans ATCC 90028, Table 1, read-out: MIC (Minimum Inhibitory Concentration)): 0.78 mg/L (≈ 3.07 µM)
- Antifungal activity against C. albicans (in words) ([1]; listed as coruscanone A): comparable to or stronger than those of positive control drugs
- IC50 (C. albicans ATCC 90028; ATCC90028, pH 4.5, read-out: IC50 (50% inhibitory concentration)): 0.2 mg/L (≈ 0.787 µM)
- MFC (C. albicans ATCC 90028; ATCC90028, C. albicans ATCC 90028, pH 4.5, Table 3, read-out: MFC): 0.63 mg/L (≈ 2.48 µM)
- MIC (C. albicans ATCC 90028; ATCC90028, C. albicans ATCC 90028, pH 4.5, Table 3, read-out: MIC): 0.31 mg/L (≈ 1.22 µM)
- IC50 (C. glabrata ATCC 90030; ATCC90030, pH 4.5, read-out: IC50 (50% inhibitory concentration)): 2.5 mg/L (≈ 9.83 µM)
- MIC (C. glabrata ATCC 90030; ATCC90030, C. glabrata ATCC 90030, pH 4.5, read-out: MIC): 5 mg/L (≈ 19.7 µM)
- Percent change in fungal growth vs control (negative = inhibition) (Phomopsis obscurans; 0.3 μm, 120 hrs): 3.3 ± 19.9%
- Percent change in fungal growth vs control (negative = inhibition) (Phomopsis obscurans; 0.3 μm, 144 hrs): 33.3 ± 41.6%
- Percent change in fungal growth vs control (negative = inhibition) (Phomopsis obscurans; 3.0 μm, 120 hrs): −37.4 ± 25.0%
- Percent change in fungal growth vs control (negative = inhibition) (Phomopsis obscurans; 3.0 μm, 144 hrs): −13.3 ± 36.0%
- Percent change in fungal growth vs control (negative = inhibition) (Phomopsis obscurans; 30 μm, 120 hrs): −88.5 ± 3.4%
- Percent change in fungal growth vs control (negative = inhibition) (Phomopsis obscurans; 30 μm, 144 hrs): −96.9 ± 1.2%
- IC50 (Phomopsis obscurans; Paraphomopsis obscurans, Phomopis obscurans, at 120 hr, read-out: IC50 (growth inhibition)): < 3.1 µM
- Mean percent fungal growth inhibition of Phomopsis viticola (Phomopsis viticola; 0.3 μm, 120 hrs): 7.4 ± 124.1%
- Mean percent fungal growth inhibition of Phomopsis viticola (Phomopsis viticola; 0.3 μm, 144 hrs): 423.2 ± 185.3%
- Mean percent fungal growth inhibition of Phomopsis viticola (Phomopsis viticola; 3.0 μm, 120 hrs): −71.1 ± 50.9%
- Mean percent fungal growth inhibition of Phomopsis viticola (Phomopsis viticola; 3.0 μm, 144 hrs): −71.3 ± 15.7%
- Mean percent fungal growth inhibition of Phomopsis viticola (Phomopsis viticola; 30 μm, 120 hrs): −61.8 ± 86.8%
- Mean percent fungal growth inhibition of Phomopsis viticola (Phomopsis viticola; 30 μm, 144 hrs): −79.1 ± 13.3%
- IC50 (Phomopsis viticola; Diaporthe ampelina, 72 h, read-out: IC50 (growth inhibition)): < 1.55 µM
